# Source: PMC3268023, “Simple Preparation of Pacific Cod Trypsin for Enzymatic Peptide Synthesis” (Journal of Amino Acids, 2011)
# Counter-ions that a name gives are not always drawn.
# Experiments:
# [1] = test system: Pacific cod trypsin (PcT); assay: inverse substrate hydrolysis, absorbance at […] nm, Lineweaver-Burk; type: biochemical, Gadus macrocephalus; details: 50 mM Tris-HCl pH 8.0, 10 mM CaCl2, 30°C, substrate in DMSO (10 of 200 μL)
# [2] = test system: Pacific cod trypsin (PcT); assay: p-nitroaniline release at […] nm, Lineweaver-Burk; type: biochemical, Gadus macrocephalus; details: 50 mM Tris-HCl pH 8.0, 10 mM CaCl2, 30°C, substrate in DMSO (10 of 200 μL)
Km [2] [µM],SMILES,Km [1] [µM]
–,"C[C@H](NC(=O)OC(C)(C)C)C(=O)Oc1ccc(C(=N)N)cc1 [5a, N-(tert-butoxycarbonyl)-L-alanine p-amidinophenyl esters]",1.5
37,"N=C(N)NCCC[C@H](NC(=O)c1ccccc1)C(=O)Nc1ccc([N+](=O)[O-])cc1 [BAPA, N-benzoyl-L-arginine p-nitroanilide hydrochloride]",–
